# From publication PMC9413440, “An Iterative Approach Guides Discovery of the FabI Inhibitor Fabimycin, a Late-Stage Antibiotic Candidate with In Vivo Efficacy against Drug-Resistant Gram-Negative Infections” (ACS Central Science, 2022)
# Key:
# A. baumannii AR-0088 = experiment: MIC against infective strain of PK/thigh models; format: cell-based; conditions: Acinetobacter baumannii, AR0088; drug-resistant A. baumannii, infective strain of the PK study (AR-0088)
# Procedure: II. Materials and Methods for Biological Experiments
# S. aureus ATCC 29213 and E. coli MG1655 were obtained from the American Type Culture Collection (ATCC). E. coli BW25113 and E. coli JW5503 were obtained from the Keio Collection. AR-bank strains were obtained from the Centers for Disease Control and Prevention and FDA Antibiotic Resistance Isolate Bank.
# Antimicrobial susceptibility tests
# Susceptibility testing was performed in biological triplicate, unless noted otherwise, using the micro-dilution broth method as outlined by the Clinical and Laboratory Standards Institute. Bacteria were cultured with cation-adjusted Mueller Hinton broth (Sigma Aldrich, catalogue number: 90922). […]
# Error bars represent the standard error of the mean of three biological replicates. All compounds evaluated in biological assays were ≥95% pure.
# [1] = system: panel of 10 clinical isolates (two E. coli, four K. pneumoniae, four A. baumannii); experiment: MIC, Gram-negative clinical isolate challenge panel; format: cell-based; conditions: Gram-negative clinical isolates; fabimycin relative to (R)-7
# [2] = format: in vitro ADME
# Procedure: Selection of resistant mutants
# Resistant mutants were generated using the large inoculum method. Briefly, S. aureus 29213, E. coli MG1655, and A. baumannii 19606 (~1 x 1010 CFUs) was plated on 100-mm plates (E. coli and A. baumannii) or 150-mm plates (S. aureus) of MH agar containing either 128, 64, or 32 µg/mL fabimycin (for gram-negatives) or 0.125, 0.062, and 0.031 µg/mL fabimycin (for S. aureus). Plates were incubated at 37 °C for 48 h and counted for the presence of colony forming units.
# Glycerol stocks of selected colonies were made, and resistant colonies confirmed by growing on agar plates containing the same concentration of fabimycin that they were generated at.
# Sequencing of bacterial fabI
# The FabI gene was amplified by PCR. Fabimycin-resistant colonies were picked and diluted in 100 µL sterile, nuclease-free H2O. […] A 10 µL portion of PCR reaction mixture was analyzed by agarose gel electrophoresis to confirm the single 1.4-kilobase pair product. […]
# Candidate drugs were incubated with plasma and parent drug levels were monitored at various time points (generally t=0, 10, 20, 30, and 60 minutes) to determine the drug’s half-life in the presence of the chosen system. […] The supernatant was collected after centrifugation, and the sample analyzed by LC-MS where the percentage of compound remaining is plotted vs time to determine the drug’s half-life. […]
smiles,measurement,setting,value
Cc1c(CN(C)C(=O)/C=C/c2cnc3c(c2)CC[C@H](N)C(=O)N3)oc2ccccc12 [fabimycin],MIC,A. baumannii AR-0088,2 µg/mL
same,difference in MIC activity between the two enantiomers,[1],64–128 fold
same,plasma protein binding,[2],lower plasma protein binding relative to Debio-1452
